From US7488733B2, “6-arylamino-5-cyano-4-pyrimidinones as pde9a inhibitors” (Boehringer Ingelheim International GmbH, priority 2003, dated 2009)

Experiments:
[1] = target: T1, PDE9A (Homo sapiens, UniProt O76083); assay: PDE9A inhibition (scintillation proximity assay); assay type: biochemical; set-up: made in house; host or cells: Sf9 insect cells, pFASTBAC baculovirus; details: recombinant PDE9A, Table 2; read-out: PDE9A-inhibiting effect IC50
Method: The test substances are dissolved in 100% DMSO and serially diluted to determine their in vitro effect on PDE 9A. […] 2 μL portions of the diluted substance solutions are introduced into the wells of microtiter plates (Isoplate; Wallac Inc., Atlanta, Ga.). Then 50 μL of a dilution of the PDE9A preparation described above are added. The dilution of the PDE9A preparation is chosen so that less than 70% of the substrate is converted during the subsequent incubation (typical dilution: 1:10 000; dilution buffer: 50 mM Tris/HCl pH 7.5, 8.3 mM MgCl2, 1.7 mM EDTA, 0.2% BSA). The substrate, [8-^3H] guanosine 3′,5′-cyclic phosphate (1 μCi/μL; Amersham Pharmacia Biotech., Piscataway, N.J.) is diluted 1:2000 with assay buffer (50 mM Tris/HCl pH 7.5, 8.3 mM MgCl2, 1.7 mM EDTA) to a concentration of 0.0005 μCi/μL. The enzyme reaction is finally started by adding 50 μL (0.025 μCi) of the diluted substrate. […] Immediately thereafter, 25 μL of a suspension containing 18 mg/mL Yttrium Scintillation Proximity Beads (Amersham Pharmacia Biotech., Piscataway, N.J.) are added. The microtiter plates are sealed with a film and left to stand at room temperature for 60 min. The plates are then measured for 30 s per well in a Microbeta scintillation counter (Wallac Inc., Atlanta, Ga.). IC50 values are determined from the graphical plot of the substance concentration versus the percentage inhibition.

[2] = target: T2, PDE8A (Homo sapiens, UniProt O60658); assay: PDE8A inhibition; assay type: biochemical; details: human isoenzyme
T2 construct: made in house; host or cells: Sf9 insect cells, pFASTBAC baculovirus
Description: (§1) Recombinant PDE1C (GenBank/EMBL Accession Number: NM_005020, Loughney et al. J. Biol. Chem. 1996 271, 796-806), PDE2A (GenBank/EMBL Accession Number: NM_002599, Rosman et al. Gene 1997 191, 89-95), PDE3B (GenBank/EMBL Accession Number: NM_000922, Miki et al. Genomics 1996, 36, 476-485), PDE4B (GenBank/EMBL Accession Number: NM_002600, Obernolte et al. Gene. 1993, 129, 239-247), PDE5A (GenBank/EMBL Accession Number: NM_001083, Loughney et al. Gene 1998, 216, 139-147), PDE7B (GenBank/EMBL Accession Number: NM_018945, Hetman et al. Proc. Natl. Acad. Sci. U.S.A. 2000, 97, 472-476), PDE8A (GenBank/EMBL Accession Number: AF—056490, Fisher et al. Biochem. Biophys. Res. Commun. […]
(§2) The test substances are dissolved in 100% DMSO and serially diluted to determine their in vitro effect on PDE 9A. […] The plates are then measured for 30 s per well in a Microbeta scintillation counter (Wallac Inc., Atlanta, Ga.). IC50 values are determined from the graphical plot of the substance concentration versus the percentage inhibition.
(§3) The in vitro effect of test substances on recombinant PDE3B, PDE4B, PDE7B, PDE8A, PDE10A and PDE11A is determined in accordance with the assay protocol described above for PDE 9A with the following adaptations: [5′,8-^3H] adenosine 3′,5′-cyclic phosphate (1 μCi/μL; Amersham Pharmacia Biotech., Piscataway, N.J.) is used as substrate. […]

[3] = target: T3, PDE1C (Homo sapiens, UniProt Q14123); assay: PDE1C inhibition; assay type: biochemical; details: human isoenzyme
T3 construct: made in house; host or cells: Sf9 insect cells, pFASTBAC baculovirus
Description: as §1, §2, §3

[4] = target: T4, PDE2A (Homo sapiens, UniProt O00408); assay: PDE2A inhibition; assay type: biochemical; details: human isoenzyme
T4 construct: made in house; host or cells: Sf9 insect cells, pFASTBAC baculovirus
Description: as §1, §2, §3

[5] = target: PDE4B (Homo sapiens, UniProt Q07343); assay: PDE4B inhibition; assay type: biochemical; details: human isoenzyme
Description: as §1, §2, §3

[6] = target: T5, PDE5A (Homo sapiens, UniProt O76074); assay: PDE5A inhibition; assay type: biochemical; details: human isoenzyme
T5 construct: made in house; host or cells: Sf9 insect cells, pFASTBAC baculovirus
Description: as §1, §2, §3

[7] = target: T6, PDE3B (Homo sapiens, UniProt Q13370); assay: PDE3B inhibition; assay type: biochemical; details: human isoenzyme
T6 construct: made in house; host or cells: Sf9 insect cells, pFASTBAC baculovirus
Description: as §1, §2, §3

[8] = target: T7, PDE10A (Homo sapiens, UniProt Q9Y233); assay: PDE10A inhibition; assay type: biochemical; details: human isoenzyme
T7 construct: made in house; host or cells: Sf9 insect cells, pFASTBAC baculovirus
Description: as §1, §2, §3

[9] = target: T8, PDE7A (Homo sapiens, UniProt Q9NP56); assay: PDE7A inhibition; assay type: biochemical; details: human isoenzyme
T8 construct: made in house; host or cells: Sf9 insect cells, pFASTBAC baculovirus

[10] = target: T1, PDE9A; details: concentrations of up to 100 μM; cited from earlier work
[11] = target: T9, Murine PDE9A (Mus musculus, UniProt O70628); details: concentrations below 200 μM; cited from earlier work
T9 sequence (O70628 1-534): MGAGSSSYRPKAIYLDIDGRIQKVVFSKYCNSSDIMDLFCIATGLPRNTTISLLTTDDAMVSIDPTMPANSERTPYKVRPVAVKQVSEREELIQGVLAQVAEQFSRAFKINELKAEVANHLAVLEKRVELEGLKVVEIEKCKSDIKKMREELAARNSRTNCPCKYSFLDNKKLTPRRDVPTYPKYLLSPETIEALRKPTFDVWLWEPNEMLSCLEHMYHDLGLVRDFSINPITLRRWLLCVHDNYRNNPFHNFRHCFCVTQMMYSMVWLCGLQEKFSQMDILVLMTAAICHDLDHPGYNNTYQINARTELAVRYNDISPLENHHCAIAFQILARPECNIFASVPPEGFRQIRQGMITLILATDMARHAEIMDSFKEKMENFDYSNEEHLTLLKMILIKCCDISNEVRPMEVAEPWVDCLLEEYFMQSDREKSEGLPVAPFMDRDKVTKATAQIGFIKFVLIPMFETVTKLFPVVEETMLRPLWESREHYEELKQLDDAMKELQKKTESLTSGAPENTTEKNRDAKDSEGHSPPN

T1 sequence (O76083 whole entry): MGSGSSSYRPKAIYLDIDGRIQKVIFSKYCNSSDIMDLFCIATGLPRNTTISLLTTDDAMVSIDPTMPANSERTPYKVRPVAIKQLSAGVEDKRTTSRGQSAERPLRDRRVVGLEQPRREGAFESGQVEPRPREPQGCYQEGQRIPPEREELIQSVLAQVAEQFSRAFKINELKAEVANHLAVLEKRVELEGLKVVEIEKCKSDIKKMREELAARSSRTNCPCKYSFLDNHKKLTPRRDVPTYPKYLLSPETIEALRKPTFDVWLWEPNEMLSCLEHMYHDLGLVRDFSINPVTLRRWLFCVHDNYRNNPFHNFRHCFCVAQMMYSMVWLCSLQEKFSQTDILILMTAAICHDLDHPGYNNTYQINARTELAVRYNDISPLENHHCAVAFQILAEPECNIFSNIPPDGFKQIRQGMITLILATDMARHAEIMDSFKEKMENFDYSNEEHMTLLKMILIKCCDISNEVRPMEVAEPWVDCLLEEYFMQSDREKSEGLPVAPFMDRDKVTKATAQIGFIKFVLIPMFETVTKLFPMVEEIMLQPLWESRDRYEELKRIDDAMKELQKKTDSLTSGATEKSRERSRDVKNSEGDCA
T6 sequence (Q13370 whole entry): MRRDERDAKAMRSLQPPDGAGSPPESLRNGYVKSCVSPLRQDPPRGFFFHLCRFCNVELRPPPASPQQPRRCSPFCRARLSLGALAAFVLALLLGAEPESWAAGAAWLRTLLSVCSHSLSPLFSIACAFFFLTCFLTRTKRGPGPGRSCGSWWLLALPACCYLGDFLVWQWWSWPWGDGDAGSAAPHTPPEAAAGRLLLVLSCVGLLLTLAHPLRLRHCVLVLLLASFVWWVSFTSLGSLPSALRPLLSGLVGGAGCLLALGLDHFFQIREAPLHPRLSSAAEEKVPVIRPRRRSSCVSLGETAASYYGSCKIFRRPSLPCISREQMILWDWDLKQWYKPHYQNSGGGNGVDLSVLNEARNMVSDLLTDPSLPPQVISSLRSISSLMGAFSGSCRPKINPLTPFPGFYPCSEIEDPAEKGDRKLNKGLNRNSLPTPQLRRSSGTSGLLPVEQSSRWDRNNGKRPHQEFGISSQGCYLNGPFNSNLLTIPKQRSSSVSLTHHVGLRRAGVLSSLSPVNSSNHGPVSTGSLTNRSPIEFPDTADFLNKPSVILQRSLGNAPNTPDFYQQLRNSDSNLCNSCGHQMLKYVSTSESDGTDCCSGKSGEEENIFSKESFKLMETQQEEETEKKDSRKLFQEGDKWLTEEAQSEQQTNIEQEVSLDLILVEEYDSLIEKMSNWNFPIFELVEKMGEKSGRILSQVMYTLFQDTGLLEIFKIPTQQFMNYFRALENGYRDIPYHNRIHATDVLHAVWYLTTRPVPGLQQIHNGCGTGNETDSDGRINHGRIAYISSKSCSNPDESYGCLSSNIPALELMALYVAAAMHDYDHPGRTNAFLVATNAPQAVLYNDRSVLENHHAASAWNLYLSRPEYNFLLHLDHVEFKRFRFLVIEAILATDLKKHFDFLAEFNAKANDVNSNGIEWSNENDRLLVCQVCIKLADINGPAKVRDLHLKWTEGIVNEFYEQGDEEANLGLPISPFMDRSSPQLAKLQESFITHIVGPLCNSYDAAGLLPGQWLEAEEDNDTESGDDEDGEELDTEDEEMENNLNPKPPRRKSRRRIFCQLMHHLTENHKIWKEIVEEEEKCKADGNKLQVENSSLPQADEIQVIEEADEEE
T2 sequence (O60658 117-829 limits assumed): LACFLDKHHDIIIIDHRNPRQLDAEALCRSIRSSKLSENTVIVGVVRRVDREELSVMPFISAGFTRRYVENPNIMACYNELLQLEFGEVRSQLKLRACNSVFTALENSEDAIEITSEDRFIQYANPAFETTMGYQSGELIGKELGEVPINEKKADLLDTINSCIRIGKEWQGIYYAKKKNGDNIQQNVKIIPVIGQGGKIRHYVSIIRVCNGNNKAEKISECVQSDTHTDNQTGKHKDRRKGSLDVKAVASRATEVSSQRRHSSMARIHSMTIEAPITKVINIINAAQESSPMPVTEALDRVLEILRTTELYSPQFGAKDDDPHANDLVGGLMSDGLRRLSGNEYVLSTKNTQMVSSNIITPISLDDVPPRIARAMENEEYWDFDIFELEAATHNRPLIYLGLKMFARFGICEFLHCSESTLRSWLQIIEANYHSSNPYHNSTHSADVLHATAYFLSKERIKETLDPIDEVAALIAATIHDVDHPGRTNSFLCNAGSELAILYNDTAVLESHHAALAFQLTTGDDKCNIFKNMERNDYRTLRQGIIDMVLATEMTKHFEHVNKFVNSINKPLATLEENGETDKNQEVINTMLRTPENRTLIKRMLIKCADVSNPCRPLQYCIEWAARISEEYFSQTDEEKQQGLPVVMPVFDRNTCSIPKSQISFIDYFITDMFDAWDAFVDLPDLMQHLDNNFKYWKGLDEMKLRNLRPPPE
T4 sequence (O00408 whole entry): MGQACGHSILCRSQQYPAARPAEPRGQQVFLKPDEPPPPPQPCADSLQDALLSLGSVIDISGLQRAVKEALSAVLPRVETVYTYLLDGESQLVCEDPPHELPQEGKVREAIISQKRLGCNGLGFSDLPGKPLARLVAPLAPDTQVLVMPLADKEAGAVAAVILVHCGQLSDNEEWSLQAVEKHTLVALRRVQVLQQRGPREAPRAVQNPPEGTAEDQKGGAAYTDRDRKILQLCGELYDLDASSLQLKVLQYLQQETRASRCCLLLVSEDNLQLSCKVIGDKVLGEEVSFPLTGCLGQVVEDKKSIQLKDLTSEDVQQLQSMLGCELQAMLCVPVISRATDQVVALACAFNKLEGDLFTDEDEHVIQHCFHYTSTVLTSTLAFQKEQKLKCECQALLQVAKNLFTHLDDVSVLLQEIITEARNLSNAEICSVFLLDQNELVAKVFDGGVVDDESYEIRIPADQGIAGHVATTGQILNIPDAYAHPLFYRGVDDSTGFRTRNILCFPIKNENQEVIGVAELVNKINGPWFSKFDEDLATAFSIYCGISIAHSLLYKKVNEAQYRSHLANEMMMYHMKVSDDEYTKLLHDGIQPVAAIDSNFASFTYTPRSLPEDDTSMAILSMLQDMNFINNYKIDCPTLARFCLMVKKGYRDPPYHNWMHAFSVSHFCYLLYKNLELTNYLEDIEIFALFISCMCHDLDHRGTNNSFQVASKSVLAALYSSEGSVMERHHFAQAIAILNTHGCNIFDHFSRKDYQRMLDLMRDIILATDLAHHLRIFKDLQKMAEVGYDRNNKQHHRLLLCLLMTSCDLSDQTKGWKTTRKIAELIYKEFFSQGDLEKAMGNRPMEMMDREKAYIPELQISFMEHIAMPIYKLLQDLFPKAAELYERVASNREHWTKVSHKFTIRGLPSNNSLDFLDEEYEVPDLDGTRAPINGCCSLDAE
T7 sequence (Q9Y233 1-779 isoform Q9Y233-1): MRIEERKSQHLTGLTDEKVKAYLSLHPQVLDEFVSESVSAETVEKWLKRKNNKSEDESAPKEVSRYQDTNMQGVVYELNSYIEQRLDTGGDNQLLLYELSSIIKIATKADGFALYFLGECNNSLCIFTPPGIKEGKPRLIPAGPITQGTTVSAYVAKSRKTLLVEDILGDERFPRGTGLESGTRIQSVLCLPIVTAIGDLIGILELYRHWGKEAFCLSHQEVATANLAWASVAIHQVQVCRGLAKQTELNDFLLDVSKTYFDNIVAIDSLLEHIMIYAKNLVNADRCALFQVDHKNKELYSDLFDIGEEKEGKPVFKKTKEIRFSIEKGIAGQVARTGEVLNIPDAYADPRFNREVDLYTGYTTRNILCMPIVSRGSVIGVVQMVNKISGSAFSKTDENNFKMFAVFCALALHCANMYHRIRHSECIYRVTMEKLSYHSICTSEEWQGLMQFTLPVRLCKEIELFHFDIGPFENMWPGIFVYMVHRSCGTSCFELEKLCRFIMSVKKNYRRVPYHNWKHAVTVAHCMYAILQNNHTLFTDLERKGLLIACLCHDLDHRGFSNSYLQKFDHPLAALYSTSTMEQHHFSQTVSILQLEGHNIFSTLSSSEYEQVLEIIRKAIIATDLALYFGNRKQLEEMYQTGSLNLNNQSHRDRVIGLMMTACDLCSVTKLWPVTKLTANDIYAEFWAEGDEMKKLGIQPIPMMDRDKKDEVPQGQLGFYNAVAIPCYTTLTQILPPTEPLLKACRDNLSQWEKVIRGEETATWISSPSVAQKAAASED
T8 sequence (Q9NP56 whole entry): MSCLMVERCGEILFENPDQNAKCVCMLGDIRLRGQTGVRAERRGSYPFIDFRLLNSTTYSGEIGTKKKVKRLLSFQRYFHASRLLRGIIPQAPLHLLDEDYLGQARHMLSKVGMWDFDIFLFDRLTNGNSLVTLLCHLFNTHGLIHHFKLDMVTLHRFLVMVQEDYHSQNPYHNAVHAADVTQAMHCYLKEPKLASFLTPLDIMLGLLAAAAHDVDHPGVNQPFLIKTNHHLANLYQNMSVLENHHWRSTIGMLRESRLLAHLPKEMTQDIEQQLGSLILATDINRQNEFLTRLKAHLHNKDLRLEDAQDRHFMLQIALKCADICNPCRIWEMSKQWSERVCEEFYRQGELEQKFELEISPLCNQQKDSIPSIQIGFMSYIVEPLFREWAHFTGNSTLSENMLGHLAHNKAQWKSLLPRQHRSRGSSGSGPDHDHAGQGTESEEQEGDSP

Structure (SMILES)	IC50 [1] [µM]	inhibition of isolated human PDE9A [10]	also measured
N#Cc1c(Nc2ccc(F)cc2)nc(CC2CCCC2)[nH]c1=O [Example 1, 2-(Cyclopentylmethyl)-4-[(fluorophenyl)amino]6-oxo-1,6-dihydro-5-pyrimidinecarbonitrile]	0.075	–	–
Cc1ccncc1Nc1nc(CC2CCCCC2)[nH]c(=O)c1C#N [Example 3, 2-(Cyclohexylmethyl)-4-[(4-methyl-3-pyridinyl)amino]-6-oxo-1,6-dihydro-5-pyrimidinecarbonitrile]	–	–	IC50 [2]: > 4 µM; IC50 [3]: > 4 µM; IC50 [4]: > 4 µM; IC50 [5]: > 4 µM; IC50 [6]: 1.4 µM; IC50 [7]: > 4 µM; IC50 [8]: > 4 µM; IC50 [9]: > 4 µM
CC(C)Cn1c(=O)n(C)c(=O)c2[nH]cnc21 [IBMX]	–	no inhibition	inhibition of murine PDE9A [11]: not inhibited
CC(=O)Nc1ccc(-c2c[nH]c(=O)cn2)cc1 [SKF94120]	–	no inhibition	–
OCCN(CCO)c1nc(N2CCCCC2)c2nc(N(CCO)CCO)nc(N3CCCCC3)c2n1 [dipyridamole]	–	no inhibition	–
COc1ccc(C2CNC(=O)C2)cc1OC1CCCC1 (stereo not drawn) [rolipram]	–	no inhibition	–
CCOC(=O)C1=C[C@]2(CC)CCCN3CCc4c(n1c1ccccc41)[C@@H]32 [vinpocetine]	–	no inhibition	–

Now from value to compound, other results behind:

IC50 [1] [µM]	Structure (SMILES)	inhibition of isolated human PDE9A [10]	also measured
0.054	Cc1c(F)cccc1Nc1nc(CC2CCCC2)[nH]c(=O)c1C#N [Example 7, 2-(Cyclopentylmethyl)-4-[(3-fluoro-2-methylphenyl)amino]-6-oxo-1,6-dihydro-5-pyrimidinecarbonitrile]	–	–
0.075	CCC(C)Cc1nc(Nc2ccccc2C)c(C#N)c(=O)[nH]1 (stereo not drawn) [Example 14, 2-(2-Methylbutyl)-4-[(2-methylphenyl)amino]-6-oxo-1,6-dihydro-5-pyrimidinecarbonitrile]	–	–
0.087	Cc1ccc(F)cc1Nc1nc(CC2CCCC2)[nH]c(=O)c1C#N [Example 23]	–	–
